Tests used:
[1] = system: quinone reductase (QR) in Hepa 1c1c7 murine hepatoma cells; test: Induction of QR (inducer potency, CD value) in Hepa 1c1c7 murine hepatoma cells; assay type: cell-based
Description: Assay of Inducer Potency. Inducer activity was measured in Hepa 1c1c7 murine hepatoma cells grown in 96-well microtiter plates (Prochaska and Santamaria, Anal. Biochem. 169:328-336 (1988); Prochaska et al., Proc. Natl. Acad. Sciences USA 89:2394-2398 (1992)). QR activity (based on the formation of the blue-brown reduced tetrazolium dye) was measured with an optical microtiter plate scanner in cell lysates prepared in one plate, and the cell density was determined in the second plate by staining with crystal violet. Quantitative information on specific activity of QR, the inducer potency, and the cytotoxicity of the extract or compound tested is obtained by computer analysis of the absorbances. One unit of inducer activity is defined as the amount that when added to a single microtiter well doubled the QR specific activity. The CD value is the concentration of a compound required to double the quinone reductase specific activity in Hepa 1c1c7 murine hepatoma cells.
Each of the analogs of sulforaphane was tested for the ability to induce QR in murine hepatoma cells by the assay described in Example 1.
Analogs were synthesized and tested in the hepatoma cell assay described in Example 1.

QR (quinone reductase) = test: Induction of QR in mouse tissues after gavage; assay type: in vivo, mouse (female CD-1)
Description: (§1) The compounds were administered to 6week-old female CD1 mice (4 or 5 mice
(§2) per group) by gavage in indicated single daily doses in 0.1 ml of Emulpho
(§3) EL 620P (GAF. Linden, NJ) for 5 days. Cytosols were prepared from the
(§4) tissues 24 hr after the last treatment and assayed for enzyme activities
(§5) (glutathione Stransferase was measured with 1chloro-2,4-dinitrobenzene).
(§6) The specific activities (nmol · min^-1 · mg^-1
(§7) ± SEM) of organs of vehicletreated #control mice were as follows.
(§8) 54 ± 5.8: GST. 439 ± 34. Data are presented as mean ± SEM.

female CD-1 mice = test: Toxicity in mice dosed by gavage; assay type: in vivo, mouse (female CD-1); settings: compared with sulforaphane and erucin
Description: The sulfone (erysolin) was more toxic, but even 5-μmol daily doses for 5 days elevated the specific activities of these enzymes in some tissues examined. We therefore conclude that sulforaphane and its analogues not only induce QR in Hepa 1c1c7 murine hepatoma cells but also induce both QR and glutathione transferase activities in a number of murine organs.

[2] = system: glutathione S-transferase (GST); test: Induction of glutathione S-transferase (GST) in mouse tissues after gavage; assay type: in vivo, mouse (female CD-1)
Description: as §1, §2, §3, §4, §5, §6, §7, §8

[3] = 5 μmol per mouse per day, gavage, 5 days, forestomach
[4] = 5 μmol per mouse per day, gavage, 5 days, glandular stomach
[5] = 5 μmol per mouse per day, gavage, 5 days, liver
[6] = 5 μmol per mouse per day, gavage, 5 days, lung
[7] = 5 μmol per mouse per day, gavage, 5 days, proximal small intestine
[8] = 5-μmol daily doses for 5 days, some tissues

With `CS(=O)(=O)CCCCN=C=S` [Erysolin] the EC (2-fold QR specific activity) ([1]; Mus musculus, Hepa-1c1c7, read-out: CD value, Table 1, QR induction, Hepa 1c1c7 cells) was 0.82 µM, the “relative potency as inducers of QR” value ([1]; comparison in words, Table 1) was “equipotent” and the “activity as inducers compared with sulforaphane and sulforaphene” value ([1]; in cell culture) was “less active”. The “Ratio of specific activities (treated/control), QR, Forestomach” value (QR (quinone reductase); [3]) was 1.05 ± 0.21, the “Ratio of specific activities (treated/control), QR, Glandular stomach” value (QR (quinone reductase); [4]) was 1.57 ± 0.08 and the “Ratio of specific activities (treated/control), QR, Liver” value (QR (quinone reductase); [5]) was 1.62 ± 0.09. The “Ratio of specific activities (treated/control), QR, Lung” value (QR (quinone reductase); [6]) was 1.00 ± 0.11, the “Ratio of specific activities (treated/control), QR, Proximal small intestine” value (QR (quinone reductase); [7]) was 1.22 ± 0.20 and the “elevation of QR specific activity” value (QR (quinone reductase); [8]) was “elevated”. For the same molecule, the “toxicity in mice” value (female CD-1 mice) was “more toxic”, the “Ratio of specific activities (treated/control), GST, Forestomach” value [2, 3] was 1.45 ± 0.15 and the “Ratio of specific activities (treated/control), GST, Glandular stomach” value [2, 4] was 1.94. The “Ratio of specific activities (treated/control), GST, Liver” value [2, 5] was 1.08 ± 0.11, the “Ratio of specific activities (treated/control), GST, Lung” value [2, 6] was 1.09 and the “Ratio of specific activities (treated/control), GST, Proximal small intestine” value [2, 7] was 0.87. For the same molecule, the “elevation of glutathione transferase specific activity” value [2, 8] was “elevated”.
